Laboratory results from patent US8394971B2, “Indole derivatives as selective androgen receptor modulators (SARMS)” (Janssen Pharmaceutica N.V., priority 2004, dated 2013).
Where “and” joins values, the source holds several entries; their conditions need not be identical. Equal entries are not always repeated. Where two headings read alike, the source gives them in different places.

Tests used:
[1] = molecular target: T1, androgen receptor (rat ventral prostate cytosol) (Rattus norvegicus, UniProt P15207); experiment: Androgen Receptor Binding Using Rat Ventral Prostate Cytosol; details: for IC50: read-out: IC50
T1 construct: from tissue; host or cells: ventral prostate of castrated male Sprague Dawley or Wistar rats, cytosol
T1 sequence (P15207 1-902): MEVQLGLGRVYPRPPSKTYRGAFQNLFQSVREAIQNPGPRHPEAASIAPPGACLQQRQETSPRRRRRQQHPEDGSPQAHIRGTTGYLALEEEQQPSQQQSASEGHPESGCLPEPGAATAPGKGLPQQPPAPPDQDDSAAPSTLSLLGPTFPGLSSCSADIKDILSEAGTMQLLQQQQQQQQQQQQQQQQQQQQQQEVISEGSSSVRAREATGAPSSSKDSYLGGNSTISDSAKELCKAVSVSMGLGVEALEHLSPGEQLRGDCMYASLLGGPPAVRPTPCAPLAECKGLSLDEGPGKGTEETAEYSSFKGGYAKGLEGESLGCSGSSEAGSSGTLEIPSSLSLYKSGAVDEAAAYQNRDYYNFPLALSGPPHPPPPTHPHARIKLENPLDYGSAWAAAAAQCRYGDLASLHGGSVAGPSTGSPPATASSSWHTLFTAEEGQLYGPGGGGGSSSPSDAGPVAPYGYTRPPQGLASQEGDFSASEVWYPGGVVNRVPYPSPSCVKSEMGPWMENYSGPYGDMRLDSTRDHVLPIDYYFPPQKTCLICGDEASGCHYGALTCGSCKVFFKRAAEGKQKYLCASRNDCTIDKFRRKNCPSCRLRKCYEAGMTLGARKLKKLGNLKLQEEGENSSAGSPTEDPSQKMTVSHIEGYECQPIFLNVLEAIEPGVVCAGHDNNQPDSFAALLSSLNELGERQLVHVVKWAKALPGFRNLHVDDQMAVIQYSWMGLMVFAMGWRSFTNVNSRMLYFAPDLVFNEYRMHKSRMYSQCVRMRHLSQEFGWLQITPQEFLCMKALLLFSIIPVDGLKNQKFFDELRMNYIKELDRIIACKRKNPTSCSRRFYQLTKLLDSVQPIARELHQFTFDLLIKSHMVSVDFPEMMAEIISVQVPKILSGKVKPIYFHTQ
Method: (§1) The assay was run on a 96 well plate with each well filled with a total reaction volume 150 μL, of a solution containing 5 pmol androgen receptor LBD (Panvera) or 30 μL of freshly prepared rat cytosol, 0.5 nM [^3H] […] (TED buffer contains 10 mM Tris.HCl pH 7.4, 1 mM sodium molybdate, 1.5 mM EDTA, 1 mM DTT and 10% (v/v) glycerol.)
(§2) On day one, the solution containing receptor, tracer and TED buffer was distributed into a 96 well plate. Diluted test compound or control vehicle was then added to individual wells and the plate incubated at 4° C. overnight.
(§3) On day two, to each well was then added 20 μL human γ-globulin (ICN 823102), prepared at 25 mg/ml in TE pH 8.0, and 55 μL 40% polyethylene glycol 8000 (JT Baker U222-08), prepared in TE pH 8.0. The plate was incubated at 4° C. for 60 minutes. During incubation, the harvester was rinsed with 10% PEG 8000, prepared in TE pH 8.0, and a GF/C Unifilter-96 was pre-wet with 10% PEG. The binding reaction was filtered, the retentate was washed three times with 10% PEG and dried under vacuum for a couple of minutes, then dried at 50° C. for 5 min and the plate was bottom sealed. Next, 25 μL of Microscint-20 (Packard) was added to the filter wells and the plate was top sealed. The plate wells were then counted on a TopCount (Packard).
Rat Prostate Cytosol Preparation:
Male Sprague Dawley or Wistar rats (Charles River, 200-300 g) were used for each preparation. The day before preparing the cytosol, the rats were castrated using standard surgical procedures.
The rats were euthanized by carbon dioxide asphyxiation. The rat prostates were quickly removed and placed on ice in pre-chilled, pre-weighed 50 mL plastic tubes. No more than five prostates were placed into one tube. The tubes were then weighed and the prostate tissue wet weights calculated.
To the chilled prostate tissue was then added […] of chilled homogenization buffer. The homogenization buffer was freshly prepared by mixing 10 mM Tris.HCl, pH 7.4, 1 mM sodium molybdate, 1.5 mM EDTA, 1 mM dithiothreitol, 10% (v/v) glycerol and 1% protease inhibitor cocktail (Sigma P 8340).
The prostate tissue was homogenized in a cold room using a pre-chilled Polytron PT3000 homogenizer (Brinkmann). Homogenization was performed at a speed setting of 20, three times for 10 sec bursts. The tubes containing the prostate tissue was kept on ice while homogenizing. The homogenate was allowed to rest on ice for 20 sec between bursts.
The homogenate was then placed into pre-chilled 3 mL polycarbonate ultracentrifuge tubes and centrifuged in the TLA-100 rotor of a TL-100 ultracentrifuge for 12 min at 100,000 rpm at 4° C. The resulting supernatant was stored in 1 mL aliquots at −80° C. until needed.
Binding to the androgen receptor was determined according to the protocol described in Example 86 using the above prepared rat cytosol.
% Inhibition was determined by testing dilutions of the test compound (usually duplicates of 10 μM) in the binding assay. Counts per well were measured and percents of inhibition determined. […] Counts per well were measured and IC50s determined by linear regression.

[2] = molecular target: T2, androgen receptor LBD (Panvera) (Rattus norvegicus, UniProt P15207); experiment: Androgen Receptor Filtration Binding Assay (PANVERA)
T2 construct: 5 pmol androgen receptor LBD (Panvera); purchased Panvera
T2 sequence (P15207 651-882 limits assumed): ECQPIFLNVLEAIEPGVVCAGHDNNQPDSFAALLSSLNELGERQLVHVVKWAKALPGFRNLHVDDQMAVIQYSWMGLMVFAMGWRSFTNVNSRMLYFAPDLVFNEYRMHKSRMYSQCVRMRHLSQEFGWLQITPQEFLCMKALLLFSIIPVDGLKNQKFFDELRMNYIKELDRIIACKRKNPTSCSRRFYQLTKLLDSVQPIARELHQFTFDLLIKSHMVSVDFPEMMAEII
Method: as §1, §2, §3
Counts per well were measured and IC50s determined by linear regression.

[3] = molecular target: T3, androgen receptor (adenovirus AdEasy+rAR in L929 cells) (Rattus norvegicus, UniProt P15207); experiment: L929 Androgen Receptor Functional Assay, Adenovirus Transduction; assay type: cell-based; details: L929 agonist testing; 3000 nM
T3 construct: expressed in transfected cells
T3 sequence (P15207 1-902): T1 sequence (P15207 1-902)
How it was run: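 L929 cells in phenol red-free, charcoal-stripped serum medium transduced with AdEasy+rAR (moi 1:500) and exposed 48 h at 37 °C to compound alone (agonist mode) or with R1881 (antagonist mode; 2.5 nM as the 2.5× dilution).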

[4] = system: testosterone-enhanced ventral prostate and seminal vesicle weights in castrated male Sprague Dawley rats; experiment: Ventral Prostate and Seminal Vesicle Weight In Vivo Assay; design: species or system rat; details: immature castrated rats; once daily for five days, usually orally at 40 mg/kg, with testosterone propionate 2 mg/kg s.c.
How it was run: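 Immature (~50 g) castrated Sprague Dawley rats dosed once daily for five days with compound (usually oral, 40 mg/kg, cyclodextrin or methylcellulose vehicle) plus testosterone propionate 2 mg/kg s.c. Wet ventral prostate and seminal vesicle weights taken on day six; activity judged by prostate weight or body-weight-adjusted % inhibition.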

[5] = rat cytosol, concentration 1000 nM
[6] = Androgen Receptor Binding (Panvera), 0.5 nM [3H] R1881 tracer
[7] = rat cytosol, concentration 3000 nM

SMILES: CS(=O)(=O)n1c(C2(O)CCN(Cc3ccccc3)CC2)cc2cc(Cl)c(C(F)(F)F)cc21 [Compound #21]
- inhibition at 1 µM [1, 5]: -41.5%
- IC50 [2, 6]: > 10200 nM

SMILES: CC(O)(Sc1ccccc1)c1cc2cc([N+](=O)[O-])c(C(F)(F)F)cc2[nH]1 (racemic) [compound 258]
- % Inhibition [1, 5]: 35.4%
- IC50 [2, 6]: 2450 nM

SMILES: CS(=O)(=O)n1c(C2(O)CCN(C(=O)OCc3ccccc3)CC2)cc2cc(Cl)c(C(F)(F)F)cc21 [compound 19]
- inhibition at 1 µM [1, 5]: -55%
- IC50 [2, 6]: > 100000 nM

SMILES: CC(O)(COC(=O)c1ccccc1Cl)c1cc2cc([N+](=O)[O-])c(C(F)(F)F)cc2[nH]1 (centres unmarked) [compound 54]
- IC50 [2]: 465 nM

SMILES: CC(O)(SC1CCCCC1)c1cc2cc([N+](=O)[O-])c(C(F)(F)F)cc2[nH]1 (racemic) [compound 256]
- IC50 [2, 6]: 2650 nM

SMILES: CC(O)(SC1CCCCC1)c1cc2cc(C#N)c(C(F)(F)F)cc2[nH]1 (racemic) [compound 257]
- IC50 [2, 6]: 5150 nM

SMILES: CC(O)(Sc1ccc(Cl)c(Cl)c1)c1cc2cc([N+](=O)[O-])c(C(F)(F)F)cc2[nH]1 (racemic) [compound 254]
- % Inhibition [1, 5]: 41%
- IC50 ([1]; rat cytosol): 670 nM
- IC50 [2, 6]: 1020 nM and 920 nM

SMILES: CC(O)(c1cc2cc(C#N)c(C(F)(F)F)cc2[nH]1)S(=O)(=O)c1ccc(Cl)cc1 (racemic) [compound 262]
- % Inhibition [1, 5]: −8.4%
- IC50 [2, 6]: > 10000 nM

SMILES: CS(=O)(=O)n1c(C2(O)CCNCC2)cc2cc(Cl)c(C(F)(F)F)cc21 [Compound #23]
- inhibition at 1 µM [1, 5]: -1.5%
- IC50 ([1]; rat cytosol): 6000 nM
- IC50 [2, 6]: 54000 nM

SMILES: CC(O)(Sc1ccc(N)cc1)c1cc2cc([N+](=O)[O-])c(C(F)(F)F)cc2[nH]1 (racemic) [compound 266]
- % Activity [3]: −4%
- % Inhibition [1, 7]: 12.4%
- active / inactive (inhibition of testosterone-enhanced prostate weight) [4]: inactive

SMILES: OC1(c2cc3cc(Cl)c(C(F)(F)F)cc3[nH]2)CCN(Cc2ccccc2)CC1 [Compound #22]
- IC50 [2, 6]: > 9600 nM

SMILES: O=C(c1ccc(Cl)cc1)N1CCC(O)(c2cc3cc(Cl)c(C(F)(F)F)cc3[nH]2)CC1 [Compound #25]
- inhibition at 1 µM [1, 5]: -83.5%
- IC50 [2, 6]: 8800 nM

SMILES: CC(O)(Sc1ccc(Cl)cc1)c1cc2cc(C#N)c(C(F)(F)F)cc2[nH]1 (racemic) [compound 261]
- % Inhibition [1, 5]: 14.05%
- IC50 [2, 6]: 1460 nM

SMILES: CC(O)(CSc1ccc(F)cc1)c1cc2cc(Cl)c(C(F)(F)F)cc2[nH]1 (centres unmarked) [compound 83]
- IC50 [2, 6]: 160 nM

SMILES: CC(O)(CSC1CCCCC1)c1cc2nc(C(F)(F)F)ccc2[nH]1 (racemic) [Compound #1]
- % Inhibition ([1]; 1 µM): 22%
- IC50 [2, 6]: 14000 nM

SMILES: CN(C)c1ccc(S(=O)(=O)CC(C)(O)c2cc3cc(Cl)c(C(F)(F)F)cc3[nH]2)cc1 (racemic) [compound 126]
- % Activity [3]: −5%
- % Inhibition [1, 7]: −30%
- active / inactive (inhibition of testosterone-enhanced prostate weight) [4]: inactive

SMILES: CC(O)(COC(=O)c1ccc(Cl)cc1)c1cc2cc(Cl)c(C(F)(F)F)cc2[nH]1 (centres unmarked) [compound 62]
- inhibition at 1 µM [1, 5]: 69%
- IC50 [2, 6]: 325 nM

SMILES: CC(O)(CSc1ccc(Cl)cc1)c1cc2cc(C#N)c(C(F)(F)F)cc2[nH]1 (centres unmarked) [compound 96]
- IC50 [2]: 1710 nM

SMILES: CC(O)(Sc1ccc(Cl)cc1)c1cc2cc([N+](=O)[O-])c(C(F)(F)F)cc2[nH]1 (racemic) [compound 259]
- IC50 [2, 6]: 915 nM
